Consider 1 molecule from article PMC4424277, “Astrocytosis precedes amyloid plaque deposition in Alzheimer APPswe transgenic mouse brain: a correlative positron emission tomography and in vitro imaging study” (European Journal of Nuclear Medicine and Molecular Imaging, 2015).

The target of the test is T1, beta-amyloid (Aβ) (Homo sapiens, UniProt P05067).
T1 construct: gene APP; Aβ plaques (fibrillar deposits) in cortical homogenates of APPswe (Tg2576) mice expressing APP with the Swedish mutation
Nature of the test: radioligand saturation binding in APPswe mouse cortical homogenates; autoradiography.

What is called Kd is the free concentration of one partner at which half of the binding sites on the other are occupied at equilibrium, for simple one-to-one binding. High values mean lower affinity, low ones higher affinity.

T1 sequence (P05067 18-770): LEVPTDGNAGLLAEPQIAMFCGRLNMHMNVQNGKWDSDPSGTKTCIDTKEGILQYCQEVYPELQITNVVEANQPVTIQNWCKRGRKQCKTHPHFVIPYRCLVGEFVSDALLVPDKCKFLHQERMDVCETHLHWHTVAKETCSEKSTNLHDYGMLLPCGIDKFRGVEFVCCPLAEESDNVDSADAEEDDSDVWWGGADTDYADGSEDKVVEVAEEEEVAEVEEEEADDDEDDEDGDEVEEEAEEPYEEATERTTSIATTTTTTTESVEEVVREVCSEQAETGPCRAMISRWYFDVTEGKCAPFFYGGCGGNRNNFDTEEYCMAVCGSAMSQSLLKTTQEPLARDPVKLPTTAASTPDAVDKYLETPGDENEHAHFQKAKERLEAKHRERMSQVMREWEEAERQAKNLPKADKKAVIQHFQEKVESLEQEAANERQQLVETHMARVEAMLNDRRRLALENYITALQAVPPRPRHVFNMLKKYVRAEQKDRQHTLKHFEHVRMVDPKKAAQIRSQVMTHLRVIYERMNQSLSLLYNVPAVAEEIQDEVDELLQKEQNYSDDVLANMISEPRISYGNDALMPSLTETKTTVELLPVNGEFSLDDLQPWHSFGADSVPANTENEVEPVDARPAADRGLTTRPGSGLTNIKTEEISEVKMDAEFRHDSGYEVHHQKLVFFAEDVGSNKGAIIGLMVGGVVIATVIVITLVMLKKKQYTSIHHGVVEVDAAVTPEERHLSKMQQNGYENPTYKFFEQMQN

Molecule `CNc1ccc(-c2nc3ccc(O)cc3s2)cn1` [AZD2184] displayed a Kd of 10.6 nM.
